Key:
HSV-2 [1] = assay: Anti-HSV-2 replication assay in Vero cells, titer by plaque assay; format: cell-based, herpes simplex virus 2; details: for Anti-HSV-2 Log10 suppression 5 μM / Anti-HSV-2 Log10 suppression 50 μM: moi 0.1, 24 h, relative to DMSO; for Anti-HSV-2 Log10 suppression 5 μM (screening symbol) / Anti-HSV-2 Log10 suppression 50 μM (screening symbol): visual inspection; for Inhibition of HSV-2 replication (in words): primary screening
Description: (§1) Anti-HSV-1 and -HSV-2 Replication Assay. Compounds to be screened were diluted in PBS supplemented to contain 2% newborn calf serum and 1% glutamine, and added in 100 μL, volume to confluent cell monolayers in 24-well cluster plates. Immediately thereafter HSV-1 and HSV-2, diluted in the supplemented PBS medium, were added to the wells in 50 μl volume such that the final concentration of compound was 50 μM and 5 μM and the multiplicity of infection was 0.1. The plates were incubated at 37° C. for 1 hour and then virus-containing inoculum was removed and the wells were washed once in PBS. Compounds, diluted to 50 μM and 5 μM in DMEM supplemented to contain 2% newborn calf serum and 1% each penicillin/streptomycin, were added at 0.5 mL/well. Plates were incubated at 37° C. an additional 23 hr, and then the plates were visually inspected through a phase contrast microscope for cytopathic effect, and for toxic effect. […] The entire contents of each well were collected by scraping. Samples were frozen at −80° C., and then subsequently thawed, sonicated, and infectious virus titer was determined by standard plaque assay on Vero cell monolayers. Because the compounds were dissolved at 10 mM in 100% DMSO, equivalent dilutions of DMSO were added to additional wells as a control for effects of the diluent. Each experiment was repeated once. EC50 values were determined as above except that serial dilutions of the compound to be tested were prepared starting at 50 μM. The inhibitory values were calculated by non-linear curve-fitting in GraphPad Prism.
(§2) Monolayers were microscopically inspected 24 hours post-infection and wells in which more cells were visually healthier than the DMSO-treated controls were collected. Viral titers in the culture lysates were then determined by standard plaque assay on Vero cells. Inhibition of viral replication was categorized as <1 log10 relative to the DMSO-treated control, 1 to 3 log10 suppression, or ≥3 log10 suppression. […] Additionally, four polyoxygenated heterocycle compounds were tested (#128, 138, 139, 140).

HSV-1 [2] = assay: Anti-HSV-1 replication assay in Vero cells, titer by plaque assay; format: cell-based, herpes simplex virus 1; details: for Anti-HSV-1 Log10 suppression 5 μM / Anti-HSV-1 Log10 suppression 50 μM: moi 0.1, 24 h, relative to DMSO; for Anti-HSV-1 Log10 suppression 5 μM (screening symbol) / Anti-HSV-1 Log10 suppression 50 μM (screening symbol): visual inspection; for Inhibition of HSV-1 replication (in words): primary screening
Description: as §1, §2

human RNaseH1 = target: T1, human RNaseH1 (Homo sapiens, UniProt O60930); assay: Biochemical inhibition of human RNaseH1 (oligonucleotide-directed RNA cleavage assay); details: compounds at 60, 20 or 10 μM
T1 construct: hexahistidine; made in house; host or cells: E. coli
T1 sequence (O60930 1-286): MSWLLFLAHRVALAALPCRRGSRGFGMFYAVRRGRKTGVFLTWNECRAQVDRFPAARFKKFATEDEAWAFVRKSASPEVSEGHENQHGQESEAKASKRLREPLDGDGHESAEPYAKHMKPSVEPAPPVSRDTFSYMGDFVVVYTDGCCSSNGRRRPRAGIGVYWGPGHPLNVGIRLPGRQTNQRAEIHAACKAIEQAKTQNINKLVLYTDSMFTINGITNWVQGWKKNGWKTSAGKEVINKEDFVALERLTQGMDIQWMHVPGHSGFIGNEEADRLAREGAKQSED
Description: (§3) Biochemical inhibition of HBV RNaseH and human RNaseH1 activity. […] RNaseH activity was measured using an oligonucleotide-directed RNA cleavage assay in which a DNA oligonucleotide is annealed to an internally ^32P-labeled RNA, the RNA:DNA heteroduplex is incubated with the enzyme to permit cleavage, and then the RNA cleavage products are resolved by electrophoresis and detected by autoradiography. The compounds were included in the reaction mixes at 60, 20, or 10 μM and the amount of the RNA cleavage products in the compound-containing reactions was compared to reactions in which an equivalent concentration of DMSO was added as a vehicle control. The data were quantified using ImageJ.

HBV RNaseH = target: T2, HBV RNaseH (Hepatitis B virus genotype A2 subtype adw2, UniProt P03159); assay: Biochemical inhibition of HBV RNaseH (oligonucleotide-directed RNA cleavage assay); details: compounds at 60, 20 or 10 μM
T2 construct: One of the inventors recently produced active recombinant HBV RNase H; hexahistidine; made in house; host or cells: E. coli
Description: as §3

Vero cells = assay: Qualitative (visual) cytotoxicity assessment in primary screening; format: cell-based; set-up: key to Vero cell toxicity Qualitative: T: visual evidence of toxicity at 50 μM; details: for Vero cell toxicity Qualitative: visual, 50 μM
Description: Compound Cytotoxicity. Compound cytotoxicity was measured both subjectively and quantitatively. Subjective assessments were done by visually inspecting the infected cells at the end of the 24 hours infection window through a phase-contrast microscope.

HSV-2 [3] = assay: HSV-2 replication inhibition in primary human foreskin fibroblasts; format: cell-based, herpes simplex virus 2; set-up: key to Replication inhibition HSV-2 50 μM (not quantified): NQ: Not quantified due to visible toxicity; details: HFF cells; for Replication inhibition HSV-2 5 μM / Replication inhibition HSV-2 50 μM: relative to DMSO-treated control
Description: as §1
(§4) Inhibition of viral replication was next assessed in human foreskin fibroblasts (HFF) to determine whether NTS inhibitors could block HSV-1 and HSV-2 replication in a physiologically relevant, primary human cell type. […] Viral yields 24 hours post-infection were measured by plaque assay.

[4] = test system: primary human foreskin fibroblasts; assay: MTT toxicity assay in human foreskin fibroblasts
Description: Toxicity Assays. Qualitative assessments of cytotoxicity were done visually by inspecting the cells in the primary screening assays. For the quantitative assays, cells were plated in 96-well plates at 1.0×10^4 per well. The next day the compounds were added at 0.78 to 100 μM in a final concentration of 1% (v/v) DMSO, and the cells were incubated for 24 hours under conditions identical to those employed for the viral replication inhibition assays. Mitochondrial toxicity was measured by incubating the cells with 0.25 mg/mL thiazolyl blue tetrazolium bromide (MTT, SigmaAldrich Chemical Co.), the cultures were incubated for 60 min, metabolites were solubilized in acidic isopropanol, and absorbance was read at 570 nm. Cellular lysis was measured by detecting release of intracellular proteases with the CytoTox-Glo assay (Promega) according to the manufacturer's instructions. Percent viability was determined for each compound concentration from the maximal absorbance or luminosity data, and then CC50 values were calculated by non-linear curve fitting using GraphPad Prism.
as §4

HSV-1 [5] = assay: HSV-1 replication inhibition in primary human foreskin fibroblasts; format: cell-based, herpes simplex virus 1; set-up: key to Replication inhibition HSV-1 50 μM (not quantified): NQ: Not quantified due to visible toxicity; details: HFF cells; for Replication inhibition HSV-1 5 μM / Replication inhibition HSV-1 50 μM: relative to DMSO-treated control
Description: as §1, §4

T2 sequence (P03159 693-845): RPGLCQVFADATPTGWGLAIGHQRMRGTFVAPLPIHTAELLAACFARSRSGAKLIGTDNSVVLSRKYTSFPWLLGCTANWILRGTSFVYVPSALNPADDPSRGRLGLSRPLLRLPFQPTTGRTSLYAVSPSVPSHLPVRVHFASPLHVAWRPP

Compound | Anti-HSV-2 Log10 suppression 5 μM (HSV-2 [1]) [log10] | Anti-HSV-2 Log10 suppression 50 μM (HSV-2 [1]) [log10] | Anti-HSV-1 Log10 suppression 5 μM (HSV-1 [2]) [log10] | Anti-HSV-1 Log10 suppression 50 μM (HSV-1 [2]) [log10] | Anti-Human RNaseH1 (human RNaseH1) | Anti-HBV RNaseH (HBV RNaseH) | Anti-HSV-2 Log10 suppression 5 μM (screening symbol) (HSV-2 [1]) | Anti-HSV-2 Log10 suppression 50 μM (screening symbol) (HSV-2 [1]) | Anti-HSV-1 Log10 suppression 5 μM (screening symbol) (HSV-1 [2]) | Anti-HSV-1 Log10 suppression 50 μM (screening symbol) (HSV-1 [2]) | also measured
Cc1nnc(C(=O)NC(C)(C)c2nc(C(=O)NCc3ccc(F)cc3)c(O)c(=O)n2C)o1 [Compound 11, Raltegravir, reference compound] | 0.25 | 0.35 | 0.2 | 0.37 | − (no inhibition at 60 μM) | − (no inhibition at 60 μM) |  |  |  |  | 
CCOC(=O)c1sc(NC(=O)CSc2nccc(C)n2)c(C#N)c1C [Compound 27] |  |  |  |  |  | − (no inhibition at 60 μM) | − | − | − | − | Vero cell toxicity Qualitative (Vero cells): T
Cc1cc(=O)oc2cc(O)c(O)cc12 [Compound 34] | −0.07 | 3.29 | 0.08 | 2.64 | − (no inhibition at 60 μM) | ++ (inhibition at 20 μM) |  |  |  |  | 
CN(C)c1ccc(-c2c3cc(O)c(=O)cc-3oc3cc(O)c(O)cc23)cc1 [Compound 35] |  |  |  |  | +++ (inhibition at 10 μM) | +++ (inhibition at 10 μM) | − | − | − | − | 
O=c1cc2oc3cc(O)c(O)cc3c(-c3ccccn3)c-2cc1O [Compound 39] | 0.12 | 0.17 | 0.19 | 0.22 | +++ (inhibition at 10 μM) | +++ (inhibition at 10 μM) |  |  |  |  | 
CCOC(=O)c1cc2ccccc2n(O)c1=O [Compound 42] |  |  |  |  | + (inhibition at 60 μM) | − (no inhibition at 60 μM) | − | − | − | − | 
O=c1ccc2ccccc2n1O [Compound 43] | 0.31 | 1.13 | 0.31 | 1.31 | − (no inhibition at 60 μM) | − (no inhibition at 60 μM) |  |  |  |  | 
Cc1cc(C)n(O)c(=O)c1C#N [Compound 44] |  |  |  |  | − (no inhibition at 60 μM) | − (no inhibition at 60 μM) | − | − | − | − | 
O=C1c2cccc3cccc(c23)C(=O)N1O [Compound 45] |  |  |  |  | − (no inhibition at 60 μM) | − (no inhibition at 60 μM) | − | − | − | − | 
CC(C)c1cccc(O)c(=O)c1 [Compound 47, Beta-thujaplicin] | 0.22 | 1.38 | 0.31 | 1.86 | − (no inhibition at 60 μM) | − (no inhibition at 60 μM) |  |  |  |  | Inhibition of HSV-2 replication (in words) (HSV-2 [1]): negligible inhibitors; Replication inhibition HSV-2 5 μM (HSV-2 [3]): 0.08 log10; Replication inhibition HSV-2 50 μM (HSV-2 [3]; 50 μM): 5.16 log10; Inhibition of HSV-1 replication (in words) (HSV-1 [2]): negligible inhibitors; CC50 ([4]; read-out: Toxicity, CC50 by MTT assay, HFF cells, 24 h): > 100 µM; Replication inhibition HSV-1 5 μM (HSV-1 [5]): 0.02 log10; Replication inhibition HSV-1 50 μM (HSV-1 [5]; 50 μM): 5.06 log10
CC(C)c1ccc(O)c(=O)cc1 [Compound 48, Gamma-thujaplicin] | 0.20 | 4.57 | 0.31 | 4.71 | − (no inhibition at 60 μM) | − (no inhibition at 60 μM) |  |  |  |  | Inhibition of HSV-2 replication (in words) (HSV-2 [1]): negligible inhibitors; Replication inhibition HSV-2 5 μM (HSV-2 [3]): 0.20 log10; Replication inhibition HSV-2 50 μM (HSV-2 [3]; 50 μM): 5.76 log10; Inhibition of HSV-1 replication (in words) (HSV-1 [2]): negligible inhibitors; CC50 [4]: > 100 µM; Replication inhibition HSV-1 5 μM (HSV-1 [5]): 0.05 log10; Replication inhibition HSV-1 50 μM (HSV-1 [5]; 50 μM): 5.99 log10
O=C(Nc1ccc(O)c(=O)cc1)c1ccccc1 [Compound 52] | 0.10 | 1.34 | 0.07 | 2.02 | − (no inhibition at 60 μM) | − (no inhibition at 60 μM) |  |  |  |  | Inhibition of HSV-2 replication (in words) (HSV-2 [1]): negligible inhibitors; Replication inhibition HSV-2 5 μM (HSV-2 [3]): −0.01 log10; Replication inhibition HSV-2 50 μM (not quantified) (HSV-2 [3]; 50 μM): NQ; Inhibition of HSV-1 replication (in words) (HSV-1 [2]): negligible inhibitors; CC50 [4]: > 100 µM; Replication inhibition HSV-1 5 μM (HSV-1 [5]): 0.10 log10; Replication inhibition HSV-1 50 μM (not quantified) (HSV-1 [5]; 50 μM): NQ
O=c1cc(NCc2ccccc2)c2cccnc2n1O [Compound 151] | 2.26 |  | 2.16 |  |  |  |  |  |  |  | Anti-HSV-2 Log10 suppression 5 μM (HSV-2 [1]; listed as #151): > 2.15 log10; Anti-HSV-1 Log10 suppression 5 μM (HSV-1 [2]; listed as #151): > 2.15 log10; Cytotoxicity at 50 μM (in words) (Vero cells): significant cytotoxicity; Vero cell toxicity Qualitative (Vero cells): T
O=c1cc(NC2CCc3ccccc32)c2cccnc2n1O (stereo not drawn) [Compound 155] | 3.88 |  | 3.85 |  |  |  |  |  |  |  | Anti-HSV-2 Log10 suppression 5 μM (HSV-2 [1]; listed as #155): > 3.84 log10; Anti-HSV-1 Log10 suppression 5 μM (HSV-1 [2]; listed as #155): > 3.84 log10; Cytotoxicity at 50 μM (in words) (Vero cells): significant cytotoxicity; Vero cell toxicity Qualitative (Vero cells): T

From patent publication US10463664B2, “Inhibitors of HSV nucleotidyl transferases and uses therefor” (Saint Louis University, priority 2013, dated 2019)
